In publication PMC4117758 (2014):

Tests used:
[1] = system: ssDNA1 (DNA, single strand) GAGCTCTCGAAAGAGCTCCGATTA; test: UV-vis absorption; settings: 150 mM KCl; 10 mM Tris-HCl pH 7.4, 1 mM Na2EDTA, 400 ml/l PEG 200; 20 μM DNA
[2] = system: Hum69 (DNA, G4) GGGTTAGGGTTAGGGTTAGGGTTAGGGTTAGGGTTAGGGTTAGGGTTAGGGTTAGGGTTAGGGTTAGGG; test: UV melting at 295 nm; settings: 50 mM KCl; 10 mM Tris-HCl pH 7.4, 1 mM Na2EDTA, no PEG; 5 μM compound, 5 μM DNA; derived from two Tm
[3] = system: Hum57 (DNA, G4) GGGTTAGGGTTAGGGTTAGGGTTAGGGTTAGGGTTAGGGTTAGGGTTAGGGTTAGGG; test: UV melting at 295 nm; settings: 50 mM KCl; 10 mM Tris-HCl pH 7.4, 1 mM Na2EDTA, no PEG; 5 μM compound, 5 μM DNA; derived from two Tm
[4] = system: KRAS (DNA, G4) AGGGCGGTGGGAAGAGGGAAGAGGGGGAGG; test: UV-vis absorption; settings: 150 mM KCl; 10 mM Tris-HCl pH 7.4, 1 mM Na2EDTA, 400 ml/l PEG 200; DNA up to 10:1 over compound
[5] = system: Oxy28 (DNA, G4) GGGGTTTTGGGGTTTTGGGGTTTGGGG; test: UV-vis absorption; settings: 150 mM KCl; 10 mM Tris-HCl pH 7.4, 1 mM Na2EDTA, 400 ml/l PEG 200; DNA up to 10:1 over compound
[6] = system: ssDNA2 (DNA, single strand) TAGAGCACACCTGTCCGTG; test: UV-vis absorption; settings: 150 mM KCl; 10 mM Tris-HCl pH 7.4, 1 mM Na2EDTA, 400 ml/l PEG 200; 20 μM DNA
[7] = system: Hum69 (DNA, G4) GGGTTAGGGTTAGGGTTAGGGTTAGGGTTAGGGTTAGGGTTAGGGTTAGGGTTAGGGTTAGGGTTAGGG; test: UV-vis absorption titration, Scatchard; settings: 150 mM KCl; 10 mM Tris-HCl pH 7.4, 1 mM Na2EDTA, 400 ml/l PEG 200; 3 μM compound; n = 0.52
[8] = system: Hum21 (DNA, G4) GGGTTAGGGTTAGGGTTAGGG; test: UV-vis absorption titration, Scatchard; settings: 150 mM KCl; 10 mM Tris-HCl pH 7.4, 1 mM Na2EDTA, 400 ml/l PEG 200; 3 μM compound; Ka undetected
[9] = system: Hum45 (DNA, G4) GGGTTAGGGTTAGGGTTAGGGTTAGGGTTAGGGTTAGGGTTAGGG; test: UV melting at 295 nm; settings: 50 mM KCl; 10 mM Tris-HCl pH 7.4, 1 mM Na2EDTA, no PEG; 5 μM compound, 5 μM DNA; derived from two Tm
[10] = system: LD (DNA, duplex) GCGCAATTGCGC; test: UV-vis absorption; settings: 150 mM KCl; 10 mM Tris-HCl pH 7.4, 1 mM Na2EDTA, 400 ml/l PEG 200; 20 μM DNA
[11] = system: AT (DNA, duplex) ATATATATATAT; test: UV-vis absorption; settings: 150 mM KCl; 10 mM Tris-HCl pH 7.4, 1 mM Na2EDTA, 400 ml/l PEG 200; 20 μM DNA
[12] = system: Hum57-M3 (DNA, G4) GGGTTAGGGTTAGGGTTAGGGTTGAGTGTGAGTGTAGGGTTAGGGTTAGGGTTAGGG; test: UV-vis absorption titration, Scatchard; settings: 150 mM KCl; 10 mM Tris-HCl pH 7.4, 1 mM Na2EDTA, 400 ml/l PEG 200; 3 μM compound; n = 0.50
[13] = system: Hum57 (DNA, G4) GGGTTAGGGTTAGGGTTAGGGTTAGGGTTAGGGTTAGGGTTAGGGTTAGGGTTAGGG; test: UV-vis absorption titration, Scatchard; settings: 150 mM KCl; 10 mM Tris-HCl pH 7.4, 1 mM Na2EDTA, 400 ml/l PEG 200; 3 μM compound; n = 0.48
[14] = system: Hum21 (DNA, G4) GGGTTAGGGTTAGGGTTAGGG; test: UV melting at 295 nm; settings: 50 mM KCl; 10 mM Tris-HCl pH 7.4, 1 mM Na2EDTA, no PEG; 5 μM compound, 5 μM DNA; derived from two Tm
[15] = system: GC (DNA, duplex) GCGCGCGCGCGC; test: UV-vis absorption; settings: 150 mM KCl; 10 mM Tris-HCl pH 7.4, 1 mM Na2EDTA, 400 ml/l PEG 200; 20 μM DNA
[16] = system: Hum63 (DNA, G4) GGGTTAGGGTTAGGGTTAGGGTTAGGGTTAGGGTTAGGGTTAGGGTTAGGGTTAGGGTTAGGG; test: UV-vis absorption titration, Scatchard; settings: 150 mM KCl; 10 mM Tris-HCl pH 7.4, 1 mM Na2EDTA, 400 ml/l PEG 200; 3 μM compound; n = 0.52
[17] = system: Hum51 (DNA, G4) GGGTTAGGGTTAGGGTTAGGGTTAGGGTTAGGGTTAGGGTTAGGGTTAGGG; test: UV-vis absorption titration, Scatchard; settings: 150 mM KCl; 10 mM Tris-HCl pH 7.4, 1 mM Na2EDTA, 400 ml/l PEG 200; 3 μM compound; n = 0.50
[18] = system: Hum57-M2 (DNA, G4) GGGTTAGGGTTAGGGTTAGGGTTGAGTGTAGGGTTAGGGTTAGGGTTAGGGTGTGAG; test: UV-vis absorption titration, Scatchard; settings: 150 mM KCl; 10 mM Tris-HCl pH 7.4, 1 mM Na2EDTA, 400 ml/l PEG 200; 3 μM compound; n = 0.47
[19] = system: Hum63 (DNA, G4) GGGTTAGGGTTAGGGTTAGGGTTAGGGTTAGGGTTAGGGTTAGGGTTAGGGTTAGGGTTAGGG; test: UV melting at 295 nm; settings: 50 mM KCl; 10 mM Tris-HCl pH 7.4, 1 mM Na2EDTA, no PEG; 5 μM compound, 5 μM DNA; derived from two Tm
[20] = system: Hum63-M3 (DNA, G4) GGGTTAGGGTTAGGGTTAGGGTTGAGTGTGAGTGTAGGGTTAGGGTTAGGGTTAGGGTGTGAG; test: UV-vis absorption titration, Scatchard; settings: 150 mM KCl; 10 mM Tris-HCl pH 7.4, 1 mM Na2EDTA, 400 ml/l PEG 200; 3 μM compound; n = 0.50
[21] = system: Hum45 (DNA, G4) GGGTTAGGGTTAGGGTTAGGGTTAGGGTTAGGGTTAGGGTTAGGG; test: UV-vis absorption titration, Scatchard; settings: 150 mM KCl; 10 mM Tris-HCl pH 7.4, 1 mM Na2EDTA, 400 ml/l PEG 200; 3 μM compound; n = 0.46
[22] = system: Hum51-M1 (DNA, G4) GGGTTAGGGTTAGGGTTAGGGTTAGGGTTAGGGTTAGGGTTAGGGTGTGAG; test: UV-vis absorption titration, Scatchard; settings: 150 mM KCl; 10 mM Tris-HCl pH 7.4, 1 mM Na2EDTA, 400 ml/l PEG 200; 3 μM compound; n = 0.45
[23] = system: Hum63-M1 (DNA, G4) GGGTTAGGGTTAGGGTTAGGGTTAGGGTTAGGGTTAGGGTTAGGGTGTGAGTGTGAGTGTGAG; test: UV-vis absorption titration, Scatchard; settings: 150 mM KCl; 10 mM Tris-HCl pH 7.4, 1 mM Na2EDTA, 400 ml/l PEG 200; 3 μM compound; n = 0.46
[24] = system: M3Q (DNA, G4) GAGGGAGGGAGGGAGAGGGA; test: UV-vis absorption; settings: 150 mM KCl; 10 mM Tris-HCl pH 7.4, 1 mM Na2EDTA, 400 ml/l PEG 200; DNA up to 10:1 over compound
[25] = system: Hum51 (DNA, G4) GGGTTAGGGTTAGGGTTAGGGTTAGGGTTAGGGTTAGGGTTAGGGTTAGGG; test: UV melting at 295 nm; settings: 50 mM KCl; 10 mM Tris-HCl pH 7.4, 1 mM Na2EDTA, no PEG; 5 μM compound, 5 μM DNA; derived from two Tm
[26] = system: C-MYC (DNA, G4) TGAGGGTGGGAGGGTGGGAA; test: UV-vis absorption; settings: 150 mM KCl; 10 mM Tris-HCl pH 7.4, 1 mM Na2EDTA, 400 ml/l PEG 200; DNA up to 10:1 over compound
[27] = system: Hum51-M2 (DNA, G4) GGGTTAGGGTTAGGGTTAGGGTTGAGTGTAGGGTTAGGGTTAGGGTTAGGG; test: UV-vis absorption titration, Scatchard; settings: 150 mM KCl; 10 mM Tris-HCl pH 7.4, 1 mM Na2EDTA, 400 ml/l PEG 200; 3 μM compound; n = 0.46
[28] = system: Hum63-M2 (DNA, G4) GGGTTAGGGTTAGGGTTAGGGTTGAGTGTAGGGTTAGGGTTAGGGTTAGGGTGTGAGTGTGAG; test: UV-vis absorption titration, Scatchard; settings: 150 mM KCl; 10 mM Tris-HCl pH 7.4, 1 mM Na2EDTA, 400 ml/l PEG 200; 3 μM compound; n = 0.50
[29] = system: Hum57-M1 (DNA, G4) GGGTTAGGGTTAGGGTTAGGGTTAGGGTTAGGGTTAGGGTTAGGGTGTGAGTGTGAG; test: UV-vis absorption titration, Scatchard; settings: 150 mM KCl; 10 mM Tris-HCl pH 7.4, 1 mM Na2EDTA, 400 ml/l PEG 200; 3 μM compound; n = 0.48

Compound: C[N+]1(CCOc2cccc(-c3c4nc(c(-c5cccc(OCC[N+]6(C)CCCCC6)c5)c5ccc([nH]5)c(-c5cccc(OCC[N+]6(C)CCCCC6)c5)c5nc(c(-c6cccc(OCC[N+]7(C)CCCCC7)c6)c6ccc3[nH]6)C=C5)C=C4)c2)CCCCC1
- binding [1]: no
- melting temperature shift (ΔTm) [2]: 6.6 °C
- melting temperature shift (ΔTm) [3]: 9.2 °C
- binding [4]: no
- binding [5]: no
- binding [6]: no
- Ka [7]: 2.05e+06 M⁻¹
- binding [8]: no
- melting temperature shift (ΔTm) [9]: 9.1 °C
- binding [10]: no
- binding [11]: no
- Ka [12]: 1.08e+06 M⁻¹
- Ka [13]: 1.05e+06 M⁻¹
- melting temperature shift (ΔTm) [14]: 0.4 °C
- binding [15]: no
- Ka [16]: 2.53e+06 M⁻¹
- Ka [17]: 1.66e+06 M⁻¹
- Ka [18]: 1.38e+06 M⁻¹
- melting temperature shift (ΔTm) [19]: 8.9 °C
- Ka [20]: 1.08e+06 M⁻¹
- Ka [21]: 1.11e+06 M⁻¹
- Ka [22]: 1.09e+06 M⁻¹
- Ka [23]: 2.08e+06 M⁻¹
- binding [24]: no
- melting temperature shift (ΔT1/2) [25]: 8.0 °C
- binding [26]: no
- Ka [27]: 1.1e+06 M⁻¹
- Ka [28]: 1.1e+06 M⁻¹
- Ka [29]: 1.3e+06 M⁻¹
